Experimental data as given in patent US12642805B2, “Use of oxygenated cholesterol sulfates for treating at least one of insulin resistance, diabetes, and prediabetes” (Medicis Pharmaceutical Corporation, priority 2020, dated 2026).
Where two headings read alike, the source gives them in different places.

How the values were obtained:
Huh-7 cells [1] = experiment: whole genome bisulfite sequencing (WGBS), 5mCpG demethylation in promoter regions; type: cell-based, human
Procedure: (§1) Each sample, 2 μg, was sent to EpigenDx, Inc. (Hopkinton, MA) for analysis of global methylation bisulfite sequencing. The same samples, 6 μg, were sent to Novogene Co., Ltd (Tianjin, China) for analysis of whole genome bisulfite sequencing (WGBS). Total RNA was isolated using the Promega SV total RNA isolation system (Madison, WI) with DNase treatment. Each sample, 2 μg, was used for the first-strand cDNA synthesis as recommended by the manufacturer (Invitrogen, Carlsbad, CA). Real-time RT-PCR was performed using SYBR Green as the indicator on ABI 7500 Fast Real-Time PCR System (Applied Biosystems, Foster City, CA). Amplifications of β-actin or GAPDH were used as internal controls. Relative messenger RNA (mRNA) expression was quantified with the comparative cycle threshold (Ct) method using the primer set shown in Table 1.1 and was expressed as 2^−ΔΔCt.
Each sample, […] of genomic DNA spiked with 26 ng lambda DNA, was fragmented by sonication to 200-300 bp with Covaris S220, followed by end repair and adenylation. Cytosine-methylated barcodes were ligated to sonicated DNA per the manufacturer's instructions. These DNA fragments were treated twice with bisulfite using EZ DNA Methylation-Gold™ Kit (Zymo Research) before the resulting single-strand DNA fragments were PCR amplified using KAPA HiFi Hot Start Uracil and Ready Mix (2×). Library concentration was quantified by Qubit® 2.0 Flurometer (Life Technologies, CA, USA) and quantitative PCR, and the insert size was assayed on an Agilent Bioanalyzer 2100 system.
The library preparations were sequenced on an Illumina Hiseq 2500/4000 or Novaseq platform and 125 bp/150 bp paired-end reads were generated. Image analysis and base calling were performed with Illumina CASAVA pipeline. Trimmomatic (Trimmomatic-0.36) software was used for quality control. Bismark software (version 0.16.3; Krueger F, 2011) was used to perform alignments of bisulfite-treated reads to a reference genome (−X 700-dovetail). DSS software (23) was used to identify differentially methylated regions (DMRs). KOBAS software was used to test the statistical enrichment of DMR related genes in the Kyoto Encyclopedia of Genes and Genomes (KEGG) pathways.
Each sample (6 μg) was used for analysis of the whole genome bisulfite sequencing (WGBS).

Huh-7 cells [2] = experiment: real-time RT-PCR gene expression; type: cell-based, human; conditions: HG 72 h; 25HC3S 6.25-50 μM, 1-8 hours
Procedure: as §1, with “FIGS. 3A-3D. Expression of key genes related to signaling pathways. […] Key Genes and their targeting genes expression were determined by RT-PCR analysis. […] Each” for “Each”, “[…],” for “EpigenDx,”, “Each sample, 2 μg, was used for the first-strand cDNA synthesis as recommended by the manufacturer (Invitrogen, Carlsbad, CA).” left out, “2^-ΔΔCt.” for “2^−ΔΔCt.”

[3] = single oral dose pharmacokinetic study in healthy and NASH subjects; type: in vivo, human; conditions: for Cmax: po, read-out: Cmax, Mean
Procedure: The present Example was a randomized, dose ranging, single dose safety and pharmacokinetic study of 25HC3S administered to subjects with NASH and control healthy subjects. […] For each cohort, 10 subjects with NASH were enrolled which were further classified into cirrhotic and non-cirrhotic. Each subject received only one dose of study treatment. The second cohort was dosed after a review of safety and tolerability data from Cohort 1.

[4] = metabolite profiling of plasma, urine, feces after intravenous dose; conditions: rats 10 mg/kg intravenous
Procedure: Samples were profiled using high performance liquid chromatography with radiodetection and metabolic characterization was performed using mass spectrometry and tandem mass spectrometry analysis.

CL/F, Mean ([3]; 200 mg single oral dose, Healthy): 171.25 ± 28.60 L/h
Plasma 25HC3S levels detectable up to, post-dose ([3]; Cohort 1 (50 mg) healthy subjects): up to 12 hours
AUC0-inf higher in NASH subjects ([3]; Cohort 2): approximately 20%
Geometric mean AUC0-12 and AUC0-last higher in NASH than healthy subjects ([3]; Cohort 2): approximately 30%
Plasma 25HC3S levels detectable up to, post-dose ([3]; Cohort 2 (200 mg) healthy subjects): up to 16 hours
geometric mean Cmax increase, NASH over healthy subjects ([3]; Cohorts 1 and 2): 18-24%
exposure (AUC parameters), increasing trends in NASH subjects ([3]; NASH vs healthy): up to 31%
half-life ([3]; human, plasma, oral, 200 mg, across both healthy and NASH subject groups, 50 and 200 mg, read-out: T1/2, range of mean values): 1.67 to 2.51 h
Cmax ([3]; human, plasma, 50 mg, 50 mg single oral dose, Healthy): 94 ± 27.3 ng/mL
Cmax ([3]; human, plasma, 200 mg, 200 mg single oral dose, Healthy): 260 ± 54.8 ng/mL
% of dose in feces ([4]; pools 0 to 48 hours): 2%
share of the exposure (AUC) to 25HC3S related radioactivity in plasma ([4]; up to 1 hour post-dose): approximately 54%
SMILES: C[C@H](CCCC(C)(C)O)[C@H]1CC[C@H]2[C@@H]3CC=C4C[C@@H](OS(=O)(=O)O)CC[C@]4(C)[C@H]3CC[C@]12C [25HC3S, 25-hydroxycholesterol-3-sulfate]
genes demethylated in promoter regions, Calcium signaling pathway (Huh-7 cells [1]; HG 72 h, then 25HC3S 4 h): 19 genes
genes demethylated in promoter regions, MAPK signaling pathway (Huh-7 cells [1]; HG 72 h, then 25HC3S 4 h): 23 genes
genes demethylated in promoter regions, cAMP signaling pathway (Huh-7 cells [1]; HG 72 h, then 25HC3S 4 h): 28 genes
genes with 5mCpG converted to CpG in promoter regions (Huh-7 cells [1]; high glucose model): 1074 genes
CREB5 expression, increase (Huh-7 cells [2]): up to 20 fold
DUSP8 expression, increase (Huh-7 cells [2]): 5 fold
FAS expression, decrease (Huh-7 cells [2]): ~90%
HMGR expression, decrease (Huh-7 cells [2]): ~90%
PGC1A expression, increase (Huh-7 cells [2]): 12 fold
